Experimental data reported in PMC11396129, “Oxindole–benzothiazole hybrids as CDK2 inhibitors and anticancer agents: design, synthesis and biological evaluation” (BMC Chemistry, 2024).

Legend:
[1] = system: DU145 prostate cancer cell line; assay: Cell cycle analysis (PI flow cytometry); format: cell-based, human; conditions: DU145, 9o at its GI50 concentration, 48h
Protocol: Concurrently, there is a decline in the % of cells in the G2 phase from 22.20% in control cells to 20.94% in 9o treated cells.
(§1) DU145 cancer cell line derived from prostate cancer was treated with the oxindole–benzothiazole conjugate 9o at its GI50. This was followed by treatment of cells according to the reported procedure and the percentage of cells in each stage of the cell cycle was identified and the percentage of cells in the apoptotic and necrotic stages were detected (for further details see additional file 1: analysis of cell cycle distribution; apoptosis assay).
(§2) 6. Analysis of cell cycle distribution
(§3) DU-145: Prostate cancer was obtained from Nawah Scientific Inc., (Mokatam, Cairo, Egypt).
Cells were maintained in DMEM media supplemented with […] of streptomycin, 100 units/mL of penicillin and 10% of heat-inactivated fetal bovine serum in humidified, 5% (v/v) CO2 atmosphere at 37 °C. After treatment with 9o for 48h, cells (10^5 cells) are collected by trypsinization and washed twice with ice-cold PBS (pH 7.4). Cells are re-suspended in two milliliters of 60% ice-cold ethanol and incubated at 4 °C for 1h for fixation. Fixed cells are washed twice again with PBS (pH 7.4) and re-suspended in 1 mL of PBS containing 50 μg/mL RNAase A and 10 μg/mL propidium iodide (PI). After 20 min of incubation in dark at 37 °C, cells are analyzed for DNA contents using flow cytometry analysis using FL2 (λex/em 535/617 nm) signal detector (ACEA Novocyte™ flowcytometer, ACEA Biosciences Inc., San Diego, CA, USA). For each sample, 12,000 events are acquired. […]

[2] = system: DU145 prostate cancer cell line; assay: Apoptosis assay (Annexin V-FITC/PI flow cytometry); format: cell-based, human; conditions: DU145, 9o at its GI50 concentration, 48h
Protocol: as §1, §2, §3
Cells were maintained in DMEM media supplemented with […] of streptomycin, 100 units/mL of penicillin and 10% of heat-inactivated fetal bovine serum in humidified, 5% (v/v) […]
CO2 atmosphere at 37 °C. […]
Apoptosis and necrosis cell populations are determined using Annexin V-FITC apoptosis detection kit (Abcam Inc., Cambridge Science Park, Cambridge, UK) coupled with 2 fluorescent channels flowcytometry. After treatment with test compounds for 48h, cells (10^5 cells) are collected by trypsinization and washed twice with ice-cold PBS (pH 7.4). Then, cells are incubated in dark with 0.5 ml of Annexin V-FITC/PI solution for 30 min in dark at room temperature according to manufacturer protocol. After staining, cells are injected via ACEA Novocyte™ flowcytometer (ACEA Biosciences Inc., San Diego, CA, USA) and analysed for FITC and PI fluorescent signals using FL1 and FL2 signal detector, respectively […]
events are acquired and positive FITC and/or PI cells are quantified by quadrant analysis and […]

[3] = target: CDK1 (Homo sapiens, UniProt P06493); assay: Kinase inhibitory activity on CDK1; format: biochemical; conditions: mean of two independent experiments ± SD
Chain of CDK1 (P06493 whole entry, species assumed): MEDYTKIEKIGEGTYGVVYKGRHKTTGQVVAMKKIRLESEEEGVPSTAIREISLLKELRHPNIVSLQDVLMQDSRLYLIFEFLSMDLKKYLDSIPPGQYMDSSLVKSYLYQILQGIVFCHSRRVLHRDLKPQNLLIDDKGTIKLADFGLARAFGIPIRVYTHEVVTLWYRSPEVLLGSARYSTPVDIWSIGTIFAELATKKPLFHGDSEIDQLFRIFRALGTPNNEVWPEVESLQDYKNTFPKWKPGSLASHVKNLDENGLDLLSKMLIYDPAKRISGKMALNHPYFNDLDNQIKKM
Chain of CDK1 (P14635 whole entry partner, species assumed): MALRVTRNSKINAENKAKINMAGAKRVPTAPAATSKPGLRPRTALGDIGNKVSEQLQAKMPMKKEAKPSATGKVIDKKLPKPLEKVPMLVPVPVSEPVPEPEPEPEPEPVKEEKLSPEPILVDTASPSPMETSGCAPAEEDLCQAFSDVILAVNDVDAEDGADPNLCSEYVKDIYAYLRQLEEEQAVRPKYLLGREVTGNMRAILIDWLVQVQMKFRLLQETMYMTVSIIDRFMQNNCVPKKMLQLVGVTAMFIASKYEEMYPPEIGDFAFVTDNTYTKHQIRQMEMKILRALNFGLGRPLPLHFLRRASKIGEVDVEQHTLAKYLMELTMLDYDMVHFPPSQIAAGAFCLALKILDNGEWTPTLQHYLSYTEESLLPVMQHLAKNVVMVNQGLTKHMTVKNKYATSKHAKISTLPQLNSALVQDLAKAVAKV

[4] = target: CDK5 (Homo sapiens, UniProt Q00535); assay: Kinase inhibitory activity on CDK5; format: biochemical; conditions: mean of two independent experiments ± SD
Chain of CDK5 (Q00535 whole entry, species assumed): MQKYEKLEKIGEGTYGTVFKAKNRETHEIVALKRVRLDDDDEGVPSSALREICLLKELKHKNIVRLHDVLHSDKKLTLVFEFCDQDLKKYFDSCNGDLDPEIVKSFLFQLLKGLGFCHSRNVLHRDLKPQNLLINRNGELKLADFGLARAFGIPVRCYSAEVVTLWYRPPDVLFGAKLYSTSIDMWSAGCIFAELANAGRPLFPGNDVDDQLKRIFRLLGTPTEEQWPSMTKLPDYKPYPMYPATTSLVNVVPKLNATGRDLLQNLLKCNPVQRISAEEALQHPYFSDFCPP
Chain of CDK5 (Q15078 99-307 partner limits assumed, species assumed): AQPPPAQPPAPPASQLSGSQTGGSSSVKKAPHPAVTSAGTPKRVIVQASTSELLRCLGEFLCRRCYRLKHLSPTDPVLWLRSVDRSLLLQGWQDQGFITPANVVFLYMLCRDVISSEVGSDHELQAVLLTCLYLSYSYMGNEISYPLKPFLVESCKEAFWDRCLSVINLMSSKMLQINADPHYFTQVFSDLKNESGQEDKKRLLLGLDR

[5] = target: VEGFR-2 (Homo sapiens, UniProt P35968); assay: Kinase inhibitory activity on VEGFR-2; format: biochemical; conditions: mean of two independent experiments ± SD
Chain of VEGFR-2 (P35968 20-1356, species assumed): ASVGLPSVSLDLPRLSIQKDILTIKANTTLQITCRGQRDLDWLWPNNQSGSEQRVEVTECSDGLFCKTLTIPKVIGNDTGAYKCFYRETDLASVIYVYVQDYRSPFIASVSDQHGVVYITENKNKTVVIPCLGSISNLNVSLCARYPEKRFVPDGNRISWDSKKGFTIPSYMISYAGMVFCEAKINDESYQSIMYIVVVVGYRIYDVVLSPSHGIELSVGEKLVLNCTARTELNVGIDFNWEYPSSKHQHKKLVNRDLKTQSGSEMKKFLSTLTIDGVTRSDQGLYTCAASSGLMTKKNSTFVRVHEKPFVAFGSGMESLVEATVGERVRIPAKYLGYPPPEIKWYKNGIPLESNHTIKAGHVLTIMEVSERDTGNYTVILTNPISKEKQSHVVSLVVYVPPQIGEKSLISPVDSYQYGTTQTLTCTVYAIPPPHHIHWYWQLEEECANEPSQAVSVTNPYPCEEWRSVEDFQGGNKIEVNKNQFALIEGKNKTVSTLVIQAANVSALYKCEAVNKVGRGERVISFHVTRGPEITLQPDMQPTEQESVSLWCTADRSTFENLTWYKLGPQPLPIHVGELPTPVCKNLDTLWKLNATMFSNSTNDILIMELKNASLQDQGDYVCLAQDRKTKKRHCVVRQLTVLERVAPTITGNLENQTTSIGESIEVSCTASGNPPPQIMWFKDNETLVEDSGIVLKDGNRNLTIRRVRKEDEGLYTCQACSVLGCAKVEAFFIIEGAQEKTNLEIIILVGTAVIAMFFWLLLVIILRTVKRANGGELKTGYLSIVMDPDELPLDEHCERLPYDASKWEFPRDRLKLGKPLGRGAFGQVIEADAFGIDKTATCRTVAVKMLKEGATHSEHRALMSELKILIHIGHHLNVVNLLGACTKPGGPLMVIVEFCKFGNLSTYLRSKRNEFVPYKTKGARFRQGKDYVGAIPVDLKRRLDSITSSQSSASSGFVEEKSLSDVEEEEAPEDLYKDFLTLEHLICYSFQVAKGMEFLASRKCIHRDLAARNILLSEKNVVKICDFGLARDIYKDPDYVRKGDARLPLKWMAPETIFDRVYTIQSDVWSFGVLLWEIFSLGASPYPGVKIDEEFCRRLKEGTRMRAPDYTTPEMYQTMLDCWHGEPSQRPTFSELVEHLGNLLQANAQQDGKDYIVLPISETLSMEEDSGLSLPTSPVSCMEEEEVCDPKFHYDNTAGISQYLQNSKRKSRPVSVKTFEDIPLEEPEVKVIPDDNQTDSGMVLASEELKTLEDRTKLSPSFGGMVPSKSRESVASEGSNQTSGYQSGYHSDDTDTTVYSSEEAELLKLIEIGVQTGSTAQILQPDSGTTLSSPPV

[6] = target: FGFR-1 (Homo sapiens, UniProt P11362); assay: Kinase inhibitory activity on FGFR-1; format: biochemical; conditions: mean of two independent experiments ± SD
Chain of FGFR-1 (P11362 22-822, species assumed): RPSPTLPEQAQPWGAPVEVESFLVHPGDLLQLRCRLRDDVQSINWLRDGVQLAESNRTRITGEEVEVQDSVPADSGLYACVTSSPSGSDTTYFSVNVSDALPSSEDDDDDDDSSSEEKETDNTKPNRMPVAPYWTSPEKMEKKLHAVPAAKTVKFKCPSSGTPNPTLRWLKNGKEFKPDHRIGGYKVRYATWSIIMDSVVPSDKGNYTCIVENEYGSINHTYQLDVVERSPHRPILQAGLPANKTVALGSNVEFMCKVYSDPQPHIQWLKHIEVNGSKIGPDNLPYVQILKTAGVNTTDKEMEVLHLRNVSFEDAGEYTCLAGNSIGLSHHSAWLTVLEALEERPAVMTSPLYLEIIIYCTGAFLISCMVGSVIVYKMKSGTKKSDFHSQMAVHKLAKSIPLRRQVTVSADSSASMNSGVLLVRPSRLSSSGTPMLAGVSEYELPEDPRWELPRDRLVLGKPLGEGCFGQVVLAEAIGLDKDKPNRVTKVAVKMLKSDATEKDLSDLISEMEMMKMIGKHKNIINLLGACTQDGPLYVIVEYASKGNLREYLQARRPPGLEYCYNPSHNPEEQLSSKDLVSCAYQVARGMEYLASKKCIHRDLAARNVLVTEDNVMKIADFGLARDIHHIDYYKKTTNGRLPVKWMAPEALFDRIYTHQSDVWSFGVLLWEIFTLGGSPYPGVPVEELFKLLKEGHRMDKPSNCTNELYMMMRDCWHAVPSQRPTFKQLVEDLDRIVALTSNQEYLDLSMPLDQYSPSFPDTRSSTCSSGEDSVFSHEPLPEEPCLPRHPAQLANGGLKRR

## COc1ccc2c(c1)C(=NNC(=O)COc1cc(-c3nc4ccccc4s3)ccc1OC)C(=O)N2 [Compound 9o, 2-(5-(Benzo[d]thiazol-2-yl)-2-methoxyphenoxy)-N′-(5-methoxy-2-oxoindolin-3-ylidene)acetohydrazide]
[1]
  %G0/G1: 61.40%
  %G2/M: 20.94%
  %S: 17.66%
  %Sub-G1: 0.41%
[2]
  % early apoptotic cells (Q2–4): 0.28%
  % of cells in the late apoptotic stage (Q2–2): 5.02%
  % of cells in the necrotic stage (Q2–1): 2.63%
  % viable cells (Q2–3): 92.07%
[3]
  IC50: 1.19 ± 0.1 µM
[4]
  IC50: 0.34 ± 0.02 µM
[5]
  IC50: > 10 µM
[6]
  IC50: > 10 µM
